Experimental findings from PubChem BioAssay (NCI) are described below.

Test systems include SF-295 CNS; HL-60(TB) leukemia; HCT-15 colon; SK-OV-3 ovarian; RPMI-8226 leukemia; A549 NSCLC; K-562 leukemia; NCI-H226 lung; ACHN renal; SK-MEL-2 melanoma.
Test in all cases: NCI anticancer screen, dose series, 48 h

Molecules are shown by their SMILES. Values joined by “and” are separate entries in the source; they are usually repeats but may differ in a detail not shown here. Equal entries are not always repeated.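 These data come from cells grown in 96-well plates and exposed to compound for 48 hours at five concentrations. The concentration for 50% growth inhibition is given as GI50. At the TGI there is no net growth.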 Bounds are passed on as bounds.

`CC(C)c1ccc(Nc2ccc3c(OCCCN4CCN(C)CC4)cccc3n2)cc1`: the GI50 was 3630 nM in the assay on SF-295 CNS; 10500 nM in the assay with HL-60(TB) leukemia; 1.94 µM in the assay on HCT-15 colon; 15.7 µM in the assay on SK-OV-3 ovarian; 3390 nM in the assay on RPMI-8226 leukemia; 15600 nM in the assay with A549 NSCLC. For the same compound, the GI50 in the assay on K-562 leukemia was 2050 nM; in the assay on NCI-H226 lung it was 18.8 µM; in the assay with ACHN renal it was 12.6 µM; in the assay with SK-MEL-2 melanoma it was 19.6 µM. Also, the TGI was 15.3 µM in the assay on SF-295 CNS; 28.8 µM with HL-60(TB) leukemia; 4.28 µM with HCT-15 colon; 31.2 µM with SK-OV-3 ovarian; 14.3 µM with RPMI-8226 leukemia; 29.8 µM with A549 NSCLC. Further, the TGI in the assay with K-562 leukemia is 4.48 µM; in the assay on NCI-H226 lung, 38.7 µM; with ACHN renal it was 28 µM; in the assay with SK-MEL-2 melanoma it was 36.5 µM.

With `CC[C@]12C=CCN3CC[C@@]4(c5ccc(OC)cc5N(C)[C@H]4[C@@](O)(C(=O)OC)[C@@H]1OC(=O)CCC[P+](c1ccccc1)(c1ccccc1)c1ccccc1)[C@@H]32`, the GI50 in the assay on SF-295 CNS was 1490 nM and 2220 nM; in the assay with HL-60(TB) leukemia, 203 nM and 195 nM; in the assay with HCT-15 colon it was 8.69 µM and 14.2 µM; with SK-OV-3 ovarian, 0.894 µM and 0.439 µM; in the assay on RPMI-8226 leukemia, 118 nM and 164 nM; in the assay on A549 NSCLC it was 1500 nM and 1110 nM. Besides, the GI50 was 561 nM and 421 nM with K-562 leukemia; 1.91 µM and 1.93 µM in the assay with NCI-H226 lung; 5.32 µM and 7.58 µM with ACHN renal; 0.441 µM and 0.356 µM in the assay on SK-MEL-2 melanoma. In addition, the TGI is 4.66 µM and 5.65 µM in the assay with SF-295 CNS; 0.76 µM and 0.518 µM in the assay with HL-60(TB) leukemia; 20.7 µM and 28.8 µM in the assay on HCT-15 colon; 3.8 µM and 2.46 µM with SK-OV-3 ovarian; 1.29 µM and 0.597 µM in the assay with RPMI-8226 leukemia; 36.2 µM and 11.4 µM with A549 NSCLC. The TGI with K-562 leukemia is 8.23 µM and 5.98 µM; in the assay with NCI-H226 lung it was 8.62 µM and 12.4 µM; in the assay with ACHN renal it was 14.5 µM and 20.1 µM; in the assay on SK-MEL-2 melanoma, 1.52 µM and 1.27 µM.

On to `O=C(O/N=C1/CCCC/C1=C\c1ccccc1)c1ccccc1`, for which the TGI with SF-295 CNS is over 100 µM; with HL-60(TB) leukemia, 40.2 µM; in the assay with HCT-15 colon, over 100 µM; in the assay with SK-OV-3 ovarian it was over 100 µM; in the assay on RPMI-8226 leukemia, over 100 µM; in the assay on A549 NSCLC, over 100 µM. Besides, the TGI in the assay on K-562 leukemia was 41 µM; with NCI-H226 lung, over 100 µM; in the assay on ACHN renal it was over 100 µM; in the assay with SK-MEL-2 melanoma, over 100 µM.

Take `O=S(=O)(Nc1cc(F)cc(Cl)c1)c1ccc(-c2cnc(C3CC3)o2)cc1`: the GI50 is 389 nM with SF-295 CNS; 761 nM in the assay with HL-60(TB) leukemia; 0.529 µM in the assay with HCT-15 colon; 4.84 µM in the assay on SK-OV-3 ovarian; 2740 nM with RPMI-8226 leukemia; 1900 nM in the assay with A549 NSCLC. For the same compound, the GI50 in the assay with K-562 leukemia was 422 nM; in the assay with NCI-H226 lung, 3.46 µM; in the assay with ACHN renal, 4.67 µM; in the assay with SK-MEL-2 melanoma it was 4.66 µM. For the same compound, the TGI in the assay on SF-295 CNS turned out to be 10.3 µM; with HL-60(TB) leukemia, 24.2 µM; in the assay with HCT-15 colon, 17 µM; with SK-OV-3 ovarian it was 25.9 µM; in the assay with RPMI-8226 leukemia it was 40.6 µM; in the assay on A549 NSCLC, 19.7 µM. The TGI is over 100 µM with K-562 leukemia, 17.9 µM with NCI-H226 lung, 45 µM in the assay on ACHN renal and 26.9 µM in the assay with SK-MEL-2 melanoma.

Regarding `Cc1cc(Br)cc(C)c1NC(=O)C(=O)C(C(=O)c1ccc2ccccc2c1)C1OC(=O)c2ccccc21` (stereo not drawn), the TGI in the assay on SF-295 CNS is 14.9 µM; in the assay on HL-60(TB) leukemia, 30.2 µM; in the assay on HCT-15 colon, 42.3 µM; with SK-OV-3 ovarian it was over 100 µM; in the assay with RPMI-8226 leukemia, over 80.5 µM; in the assay on A549 NSCLC, over 100 µM. For the same compound, the TGI in the assay on K-562 leukemia was over 72.9 µM; with NCI-H226 lung, 11.2 µM; with ACHN renal it was 34.7 µM; in the assay with SK-MEL-2 melanoma, 34.5 µM.

For the compound `O=C(CCCn1ccnc1[N+](=O)[O-])NCCn1cncc1[N+](=O)[O-]`, the TGI in the assay on SF-295 CNS, with HL-60(TB) leukemia, in the assay with HCT-15 colon, in the assay on SK-OV-3 ovarian, with RPMI-8226 leukemia and with A549 NSCLC was over 100 µM in each case. In addition, the TGI in the assay with K-562 leukemia, in the assay with NCI-H226 lung, in the assay with ACHN renal and in the assay on SK-MEL-2 melanoma was over 100 µM each time.

For the compound `CC(=O)OC1Oc2ccccc2-c2oc(=O)c(-c3cc(=O)oc4cc(O)ccc34)cc21` (stereo not drawn), the GI50 was 8740 nM in the assay on SF-295 CNS; 21800 nM in the assay on HL-60(TB) leukemia; 21.3 µM in the assay with HCT-15 colon; 26.7 µM in the assay with SK-OV-3 ovarian; 13100 nM with RPMI-8226 leukemia; 24000 nM with A549 NSCLC. In addition, the GI50 was 9450 nM with K-562 leukemia, 27.1 µM with NCI-H226 lung, 23.1 µM in the assay on ACHN renal and 19.2 µM in the assay with SK-MEL-2 melanoma. Moreover, the TGI with SF-295 CNS is 25.2 µM; in the assay with HL-60(TB) leukemia it was over 100 µM; in the assay on HCT-15 colon, 96.4 µM; in the assay with SK-OV-3 ovarian it was 87.6 µM; in the assay with RPMI-8226 leukemia it was 44.1 µM; in the assay on A549 NSCLC, over 100 µM. Besides, the TGI with K-562 leukemia is over 100 µM; in the assay with NCI-H226 lung, 67.3 µM; in the assay with ACHN renal it was 79.2 µM; with SK-MEL-2 melanoma, 89 µM.

In the case of `COc1ccc(N(C)c2ncnc3occ(C)c23)cc1`, the GI50 was under 10 nM with SF-295 CNS; under 10 nM with HL-60(TB) leukemia; under 0.01 µM in the assay on HCT-15 colon; under 0.01 µM in the assay on SK-OV-3 ovarian; under 10 nM in the assay with RPMI-8226 leukemia; under 10 nM in the assay on A549 NSCLC. For the same compound, the GI50 with K-562 leukemia is under 10 nM; in the assay with NCI-H226 lung, under 0.01 µM; in the assay on ACHN renal it was 0.0193 µM; in the assay with SK-MEL-2 melanoma, under 0.01 µM. Also, the TGI in the assay with SF-295 CNS is over 100 µM; in the assay on HL-60(TB) leukemia it was under 0.01 µM; in the assay with SK-OV-3 ovarian it was over 100 µM; in the assay with RPMI-8226 leukemia, under 0.01 µM; in the assay with A549 NSCLC it was over 100 µM; in the assay on NCI-H226 lung, 0.0761 µM. Further, the TGI in the assay on ACHN renal is over 100 µM; in the assay with SK-MEL-2 melanoma it was 58.7 µM.
